Reference: ChEMBL document CHEMBL4819025, “Natural Piperine Improves Lipid Metabolic Profile of High-Fat Diet-Fed Mice by Upregulating SR-B1 and ABCG8 Transporters” (J Nat Prod, 2021)
Active and inactive are the calls of the source. No cut-off for these calls is given here.

Columns and labels:
HepG2 [1] = experiment: Hypolipidemic activity in human HepG2 cells assessed as reduction in FFA-induced intracellular fat deposition at 10 uM after 24 hrs by Oil Red O staining based assay; type: functional, cell-based
Mus musculus [2] = experiment: Effect on NPC1L1 protein expression level in high-fat diet fed mouse small intestine at 25 mg/kg, po by Western blotting analysis; type: functional, organism-based
Mus musculus [3] = experiment: Effect on NPC1 mRNA expression level in high-fat diet fed mouse liver at 25 mg/kg/day by qRT-PCR analysis; type: functional, organism-based
Mus musculus [4] = experiment: Effect on SR-B1 mRNA expression level in high-fat diet fed mouse small intestine at 25 mg/kg, po by qRT-PCR analysis; type: functional, organism-based
Mus musculus [5] = experiment: Hypolipidemic activity in high fat diet-induced ICR mouse hyperlipidemic model assessed as reduction in fat accumulation in liver at 25 mg/kg, ig administered once daily for 8 weeks by H and E staining based microscopic analysis; type: functional, organism-based
Mus musculus [6] = experiment: Effect on ABCA1 protein expression level in high-fat diet fed mouse small intestine at 25 mg/kg, po by Western blotting analysis; type: functional, organism-based
[7] = Toxicity in high fat diet-induced ICR mouse model of hyperlipidemia assessed as change in stomach weight at 25 mg/kg, ig administered once daily for 8 weeks by H and E staining based microscopic analysis; type: organism-based; conditions: in vivo, po, 1344 h
HepG2 [8] = experiment: Cytotoxicity against human HepG2 cells assessed as reduction in cell viability at 1 to 100 uM after 24 hrs by CCK8 assay; type: cell-based; conditions: hepg2, 24 h, dose 1-100 µM
Mus musculus [9] = experiment: Effect on ABCG5 mRNA expression level in high-fat diet fed mouse liver at 25 mg/kg/day by qRT-PCR analysis; type: functional, organism-based
[10] = Toxicity in high fat diet-induced ICR mouse model of hyperlipidemia assessed as change in kidney weight at 25 mg/kg, ig administered once daily for 8 weeks by H and E staining based microscopic analysis; type: organism-based; conditions: in vivo, po, 1344 h
Mus musculus [11] = experiment: Hypolipidemic activity in normal diet fed ICR mouse assessed as reduction in TG level in liver at 25 mg/kg, ig administered once daily for 8 weeks by H and E staining based microscopic analysis; type: functional, organism-based
Mus musculus [12] = experiment: Hypolipidemic activity in high fat diet-induced ICR mouse hyperlipidemic model assessed as reduction in plasma LDL-C level at 25 mg/kg, ig administered once daily for 8 weeks; type: functional; parameters: scale not given: the % may be the effect or the level left
Mus musculus [13] = experiment: Upregulation of ABCG8 mRNA expression in high-fat diet fed mouse liver at 25 mg/kg/day by qRT-PCR analysis; type: functional, organism-based
Mus musculus [14] = experiment: Effect on NPC1L1 protein expression level in high-fat diet fed mouse liver at 25 mg/kg/day by Western blotting analysis; type: functional, organism-based
Mus musculus [15] = experiment: Hypolipidemic activity in normal diet fed ICR mouse assessed as alteration in plasma HDL-C level at 25 mg/kg, ig administered once daily for 8 weeks; type: functional, organism-based
Mus musculus [16] = experiment: Effect on NPC1 mRNA expression level in high-fat diet fed mouse small intestine at 25 mg/kg, po by qRT-PCR analysis; type: functional, organism-based
HepG2 [17] = experiment: Hypolipidemic activity in human HepG2 cells assessed as reduction in FFA-induced intracellular fat deposition at 50 to 100 uM after 24 hrs by Oil Red O staining based assay; type: functional; parameters: scale not given: the % may be the effect or the level left; conditions: dose 50-100 µM
[18] = Toxicity in high fat diet-induced ICR mouse model of hyperlipidemia assessed as change in hepatic morphology at 25 mg/kg, ig administered once daily for 8 weeks by H and E staining based microscopic analysis; type: organism-based; conditions: in vivo, po, 1344 h
[19] = Upregulation of […] expression in high-fat diet fed mouse small intestine assessed as fold increase at 25 mg/kg, po by qRT-PCR analysis; type: functional
Mus musculus [20] = experiment: Hypolipidemic activity in high fat diet-induced ICR mouse hyperlipidemic model assessed as increase in plasma HDL-C level at 25 mg/kg, ig administered once daily for 8 weeks; type: functional, organism-based
Mus musculus [21] = experiment: Hypolipidemic activity in normal diet fed ICR mouse assessed as alteration in plasma TG level at 25 mg/kg, ig administered once daily for 8 weeks; type: functional, organism-based
Mus musculus [22] = experiment: Effect on ABCA1 mRNA expression level in high-fat diet fed mouse small intestine at 25 mg/kg, po by qRT-PCR analysis; type: functional, organism-based
Mus musculus [23] = experiment: Hypolipidemic activity in normal diet fed ICR mouse assessed as alteration in plasma TC level at 25 mg/kg, ig administered once daily for 8 weeks; type: functional, organism-based
Mus musculus [24] = experiment: Hypolipidemic activity in normal diet fed ICR mouse assessed as reduction in TC level in liver at 25 mg/kg, ig administered once daily for 8 weeks by H and E staining based microscopic analysis; type: functional, organism-based
HepG2 [25] = experiment: Hypolipidemic activity in human HepG2 cells assessed as reduction in FFA-induced TG accumulation after 24 hrs; type: functional, cell-based; conditions: dose 10-100 µM
Mus musculus [26] = experiment: Hypolipidemic activity in high fat diet-induced ICR mouse hyperlipidemic model assessed as reduction in TC level in liver at 25 mg/kg, ig administered once daily for 8 weeks by H and E staining based microscopic analysis; type: functional, organism-based
Mus musculus [27] = experiment: Effect on ABCG8 protein expression level in high-fat diet fed mouse liver at 25 mg/kg/day by Western blotting analysis; type: functional, organism-based
[28] = Toxicity in high fat diet-induced ICR mouse model of hyperlipidemia assessed as change in spleen weight at 25 mg/kg, ig administered once daily for 8 weeks by H and E staining based microscopic analysis; type: organism-based; conditions: in vivo, po, 1344 h
Mus musculus [29] = experiment: Hypolipidemic activity in normal diet fed ICR mouse assessed as alteration in plasma LDL-C level at 25 mg/kg, ig administered once daily for 8 weeks; type: functional, organism-based
Mus musculus [30] = experiment: Effect on ABCG1 mRNA expression level in high-fat diet fed mouse liver at 25 mg/kg/day by qRT-PCR analysis; type: functional, organism-based
[31] = Toxicity in high fat diet-induced ICR mouse model of hyperlipidemia assessed as change in lung weight at 25 mg/kg, ig administered once daily for 8 weeks by H and E staining based microscopic analysis; type: organism-based; conditions: in vivo, po, 1344 h
Mus musculus [32] = experiment: Upregulation of SR-B1 protein expression level in high-fat diet fed mouse liver at 25 mg/kg/day by Western blotting analysis; type: functional, organism-based
Mus musculus [33] = experiment: Effect on SR-B1 mRNA expression level in high-fat diet fed mouse liver at 25 mg/kg/day by qRT-PCR analysis; type: functional, organism-based
Mus musculus [34] = experiment: Hypolipidemic activity in high fat diet-induced ICR mouse hyperlipidemic model assessed as reduction in plasma TG level at 25 mg/kg, ig administered once daily for 8 weeks; type: functional; parameters: scale not given: the % may be the effect or the level left
Mus musculus [35] = experiment: Effect on ABCG1 protein expression level in high-fat diet fed mouse liver at 25 mg/kg/day by Western blotting analysis; type: functional, organism-based
[36] = Toxicity in high fat diet-induced ICR mouse model of hyperlipidemia assessed as change in heart weight at 25 mg/kg, ig administered once daily for 8 weeks by H and E staining based microscopic analysis; type: organism-based; conditions: in vivo, po, 1344 h
Mus musculus [37] = experiment: Effect on ABCG5 protein expression level in high-fat diet fed mouse liver at 25 mg/kg/day by Western blotting analysis; type: functional, organism-based
Mus musculus [38] = experiment: Hypolipidemic activity in high fat diet-induced ICR mouse hyperlipidemic model assessed as reduction in plasma TC level at 25 mg/kg, ig administered once daily for 8 weeks; type: functional; parameters: scale not given: the % may be the effect or the level left
Mus musculus [39] = experiment: Effect on ABCA1 mRNA expression level in high-fat diet fed mouse liver at 25 mg/kg/day by qRT-PCR analysis; type: functional, organism-based
[40] = Upregulation of ABCG8 protein expression in high-fat diet fed mouse small intestine at 25 mg/kg, po by Western blotting analysis; type: functional
Mus musculus [41] = experiment: Effect on ABCG5 mRNA expression level in high-fat diet fed mouse small intestine at 25 mg/kg, po by qRT-PCR analysis; type: functional, organism-based
[42] = Toxicity in high fat diet-induced ICR mouse model of hyperlipidemia assessed as change in liver weight at 25 mg/kg, ig administered once daily for 8 weeks by H and E staining based microscopic analysis; type: organism-based; conditions: in vivo, po, 1344 h
Mus musculus [43] = experiment: Hypolipidemic activity in high fat diet-induced ICR mouse hyperlipidemic model assessed as reduction in TG level in liver at 25 mg/kg, ig administered once daily for 8 weeks by H and E staining based microscopic analysis; type: functional, organism-based
[44] = Toxicity in high fat diet-induced mouse model of hyperlipidemia assessed as change in food intake at 25 mg/kg, ig administered once daily for 8 weeks; type: organism-based; conditions: in vivo, po, 1344 h
Mus musculus [45] = experiment: Effect on ABCA1 protein expression level in high-fat diet fed mouse liver at 25 mg/kg/day by Western blotting analysis; type: functional, organism-based
Mus musculus [46] = experiment: Effect on SR-B1 protein expression level in high-fat diet fed mouse small intestine at 25 mg/kg, po by Western blotting analysis; type: functional, organism-based
[47] = Toxicity in high fat diet-induced mouse model of hyperlipidemia assessed as change in body weight at 25 mg/kg, ig administered once daily for 8 weeks; type: organism-based; conditions: in vivo, po, 1344 h
Mus musculus [48] = experiment: Effect on ABCG5 protein expression level in high-fat diet fed mouse small intestine at 25 mg/kg, po by Western blotting analysis; type: functional, organism-based
HepG2 [49] = experiment: Hypolipidemic activity in human HepG2 cells assessed as reduction in FFA-induced lipid accumulation incubated for 24 hrs by Oil Red O staining based assay; type: functional, cell-based; conditions: dose 10-100 µM

With CC(C)c1c(C(=O)Nc2ccccc2)c(-c2ccccc2)c(-c2ccc(F)cc2)n1CC[C@@H](O)C[C@@H](O)CC(=O)O the Activity (HepG2 [1]) was “Active”.

With O=C(/C=C/C=C/c1ccc2c(c1)OCO2)N1CCCCC1 [PIPERINE] the Activity (Mus musculus [2]) was “inactive”, the Activity (Mus musculus [3]) was “inactive” and the Activity (Mus musculus [4]) was “inactive”. For the same compound, the Activity (Mus musculus [5]) was “Active”, the Activity (Mus musculus [6]) was “inactive” and the Activity [7] was “Non-Toxic”. The Activity (HepG2 [8]) was “Non-Toxic”, the Activity (Mus musculus [9]) was “inactive” and the Activity [10] was “Non-Toxic”. The Activity (Mus musculus [11]) was “inactive”, the Activity (Mus musculus [12]) was 34.4% and the Activity (Mus musculus [13]) was “Active”. For the same compound, the Activity (Mus musculus [14]) was “inactive”, the Activity (Mus musculus [15]) was “inactive” and the Activity (Mus musculus [16]) was “inactive”. The Activity (HepG2 [17]) was 36%, the Activity [18] was “Non-Toxic” and the “fold change (FC)” value [19] was 1.8. For the same compound, the Activity (Mus musculus [20]) was “Active”, the Activity (Mus musculus [21]) was “inactive” and the Activity (Mus musculus [22]) was “inactive”. For the same compound, the Activity (Mus musculus [23]) was “inactive”, the Activity (Mus musculus [24]) was “inactive” and the Activity (HepG2 [25]) was “Dose-Dependent Effect”. The Activity (Mus musculus [26]) was “Active”, the Activity (Mus musculus [27]) was “inactive” and the Activity [28] was “Non-Toxic”. For the same compound, the Activity (Mus musculus [29]) was “inactive”, the Activity (Mus musculus [30]) was “inactive” and the Activity [31] was “Non-Toxic”. For the same compound, the Activity (Mus musculus [32]) was “Active”, the Activity (Mus musculus [33]) was “inactive” and the Activity (Mus musculus [34]) was 43.6%. The Activity (Mus musculus [35]) was “inactive”, the Activity [36] was “Non-Toxic” and the Activity (Mus musculus [37]) was “inactive”. For the same compound, the Activity (Mus musculus [38]) was 27.5%, the Activity (Mus musculus [39]) was “inactive” and the Activity [40] was 80%. The Activity (Mus musculus [41]) was “inactive”, the Activity [42] was “Non-Toxic” and the Activity (Mus musculus [43]) was “Active”. The Activity [44] was “Non-Toxic”, the Activity (Mus musculus [45]) was “inactive” and the Activity (Mus musculus [46]) was “inactive”. For the same compound, the Activity [47] was “Non-Toxic”, the Activity (Mus musculus [48]) was “inactive” and the Activity (HepG2 [49]) was “Dose-Dependent Effect”.
